Reference: patent publication US20250352529A1, “COMBINED USE OF M1 MUSCARINIC RECEPTOR AGONISTS AND M3 MUSCARINIC RECEPTOR ANTAGONISTS TO TREAT CANCER” (The United States Government As Represented By The …, priority 2024, published 2025)
Where two headings read alike, the source gives them in different places.

What was measured:
H508 human CRC cells = experiment: WST-1 cell proliferation assay, H508 cells; assay type: cell-based; conditions: for change in cell proliferation: trospium 5-50 μM; for effect of antagonist preincubation on xanomeline dose-response curve (proliferation): trospium 50 μM, darifenacin 30 and 60 μM; for IC50: Homo sapiens, read-out: half-maximal inhibitory concentration (IC50), cell proliferation
Description: (§1) FIG. 6A) Treating H508 cells for 5 days with carbachol (carb), a non-selective muscarinic receptor agonist stimulates cell proliferation measured using the WST-1 Cell Proliferation Assay (Roche). Cont, control; Carb, carbachol. Solid black circles represent values for individual replicates. […] Cells were incubated with or without agents for 5 days. N=4. FIG. 6D). Maximal proliferation responses observed with increasing concentrations of McN-A-343 in H508 (square), HT-29 (triangle), and HCT116 (circle) human CRC cells. Cells were incubated with agents for 5 days. Dose-response curves created by nonlinear regression (GraphPad Prism).
(§2) Human colon cancer cell lines (H508, HCT116) were grown in complete culture medium in a 37° C. incubator with 5% CO2 and sub-cultured weekly. H508 or HCT116 cells were seeded in 96-well plates, allowed to adhere for 24 h and changed to serum-free culture medium. Cells were treated for 5 days with Xanomeline, a selective M1R agonist, and were pre-incubated for 30 min with Darifenacin, a selective M3R antagonist or Trospium, a non-selective MR antagonist. Cell proliferation and cytotoxicity were measured using the WST-1 and LDH colorimetric assays, respectively. Absorbance was measured at 440 nm and 490/680 nm, respectively, using a computer-interfaced plate reader.

H508 CRC cells = experiment: LDH release cytotoxicity assay; assay type: cell-based, human; conditions: increasing doses of xanomeline +/− 30 or 60 μM darifenacin
Description: FIG. 7A-B show combining a selective M3R inhibitor (darifenacin) with an M1R-selective activator potentiates inhibition of cell proliferation without cell injury. […] Triton X-100 was the positive control for LDH release. Symbols represent means+/−SEM of 3-9 replicates.
To exclude cell toxicity with these drug concentration, cellular release of lactate dehydrogenase (LDH) was measured.
as §2

HCT116 human CRC cells = experiment: WST-1 cell proliferation assay, HCT116 cells; assay type: cell-based
Description: as §1, §2

HT-29 human CRC cells = experiment: WST-1 cell proliferation assay, HT-29 cells; assay type: cell-based; conditions: HT-29 cells (CHRM1:3-low), 5 days; read-out: half-maximal effective concentration (EC50) for inhibition of CRC cell proliferation
Description: as §1

[1] = H508 cells, 5 days, agent alone
[2] = NCI-H508, 120 h, H508 cells, agent alone, 5 days

IC50 (H508 human CRC cells; [2]) [µM] | SMILES | change in cell proliferation (H508 human CRC cells; [1]) | effect of antagonist preincubation on xanomeline dose-response curve (proliferation) (H508 human CRC cells; H508 cells) | other results
 | O=C(O[C@H]1C[C@H]2CC[C@@H](C1)[N+]21CCCC1)C(O)(c1ccccc1)c1ccccc1 [trospium, Trospium] | did not alter cell proliferation | did not shift | 
32.8 | CCCCCCOc1nsnc1C1=CCCN(C)C1 [xanomeline, Xanomeline] | robustly and dose-dependently attenuated cell proliferation |  | cell LDH leakage (H508 CRC cells): No cell LDH leakage was detected; inhibition of cell proliferation compared to H508 cells (HCT116 human CRC cells; HCT116 cells, increasing xanomeline concentrations): attenuated at lower xanomeline concentrations; IC50 (H508 human CRC cells; NCI-H508, H508 cells, xanomeline plus 30 μM darifenacin): 21.6 µM; IC50 (H508 human CRC cells; NCI-H508, H508 cells, xanomeline plus 60 μM darifenacin): 18.7 µM
 | C[N+](C)(C)CCOC(N)=O [carbachol, Carbachol] | two-fold increase in cell proliferation |  | 
 | C[N+](C)(C)CC#CCOC(=O)Nc1cccc(Cl)c1.[Cl-] [McN-A-343] | robustly and dose-dependently attenuated cell proliferation |  | EC50 (HCT116 human CRC cells; HCT116 cells (CHRM1:3-high), 5 days, read-out: half-maximal effective concentration (EC50) for inhibition of CRC cell proliferation): 7.89 µM; EC50 (HT-29 human CRC cells): 548 µM; EC50 (H508 human CRC cells; H508 cells (CHRM1:3-low), 5 days, read-out: half-maximal effective concentration (EC50) for inhibition of CRC cell proliferation): 137 µM
84 | NC(=O)C(c1ccccc1)(c1ccccc1)[C@@H]1CCN(CCc2ccc3c(c2)CCO3)C1 [darifenacin, Darifenacin] |  | shifted the xanomeline dose-response curve progressively leftward | 
